Test results as given in US6326378A, “Use of thiadiazolo[4,3-a]pyridine derivatives” (Roche Diagnostics GmbH, priority 1998, dated 2001).
Values after ≈ are worked out from the molar mass of the structure shown.

How the values were obtained:
T Lymphoblasts = assay: T Lymphoblasts, thymidine incorporation; format: cell-based; conditions: no stimulus
From the text: (§1) The compound from Example 2b inhibits the activation of various types of leucocytes under different stimuli.

mice = assay: Toxicity / tolerability in mice; format: in vivo, mouse; conditions: p.o. and i.p.
From the text: (§2) The behaviour of the dogs was normal.

guinea pigs = assay: Toxicity / tolerability in guinea pigs; format: in vivo, guinea pig; conditions: p.o. and i.p.
From the text: as §2

Phagocytes (PMNs) = assay: Phagocytes (PMNs), zymosan, chemiluminescence; format: cell-based; conditions: stimulus zymosan
From the text: as §1

Lymphocytes [1] = assay: Lymphocytes, mixed lymphocytes reaction, thymidine incorporation; format: cell-based; conditions: Lymphocyte; stimulus mixed lymphocytes reaction
From the text: as §1

PDE III = PDE III inhibition, isolated human enzyme preparations; format: biochemical; conditions: isolated human enzyme preparation
Description: (§3) The IC50 values of the compound from Example 2b were determined to be 2×10^-5 mol/l (PDE IV) and 8×10^-5 mol/l (PDE III) on isolated human enzyme preparations.

rats = assay: Toxicity / tolerability in rats; format: in vivo, rat
From the text: as §2

PDE IV = PDE IV inhibition, isolated human enzyme preparations; format: biochemical; conditions: isolated human enzyme preparation
Description: as §3

conscious dogs (beagles) = assay: Effect on heart rate and arterial blood pressure of conscious dogs; format: in vivo, dog; conditions: for DBP / MAP / SBP / HR: 24 mg/kg oral
Description: as §2
Effect on heart rate and on arterial blood pressure
of conscious dogs after oral administration of 24 mg/kg of the compound of […]

dogs = assay: Toxicity / tolerability in dogs; format: in vivo, dog
From the text: as §2

Basophilic granulocytes = assay: Basophilic granulocytes, anti-IgE antibody, proteinase release; format: cell-based; conditions: stimulus anti-IgE antibody
From the text: as §1

Lymphocytes [2] = assay: Lymphocytes, ConA, thymidine incorporation; format: cell-based; conditions: Lymphocyte; stimulus ConA
From the text: as §1

Peripheral leucocytes = assay: Peripheral leucocytes, LPS, secretion of TNFα; format: cell-based; conditions: Leucocyte; stimulus LPS
From the text: as §1

[3] = cited from earlier work
[4] = conscious beagles, 24 mg/kg, up to 6 h after administration
[5] = conscious beagles, 24 mg/kg, observation period up to 6 h

In the case of `c1ccn2c(=Nc3ccncc3)snc2c1` [Example 2b, 3-(4-Pyridinylimino)-3H-[1,2,4]thiadiazolo[4,3-a]pyridine], the IC50 (T Lymphoblasts) is reported as 6.4 µg/mL (≈ 28 µM), the tolerability (mice) is reported as “well tolerated” and the tolerability (guinea pigs) is reported as “well tolerated”. It also gave an IC50 (Phagocytes (PMNs)) of 27 µg/mL (≈ 118 µM), an IC50 (Lymphocytes [1]) of 7.6 µg/mL (≈ 33.3 µM) and an IC50 (PDE III) of 80 µM. For the same compound, the “side effects (behaviour, body weight, histology, haematological and clinicochemical parameters)” value (rats; after 2 weeks, 40 mg/kg daily) was “not possible to determine any side effects”, the tolerability (rats; p.o. and i.p.) was “well tolerated” and the IC50 (PDE IV) was 20 µM. For the same compound, the arterial blood pressure (conscious dogs (beagles); [4]) was “remained constant”, the heart rate (conscious dogs (beagles); [4]) was “remained constant” and the DBP (conscious dogs (beagles); edible oil + 2% DMSO, 30 min, preliminary value 66) was 63 mmHg. For the same compound, the MAP (conscious dogs (beagles); edible oil + 2% DMSO, 30 min, preliminary value 111) was 113 mmHg, the SBP (conscious dogs (beagles); edible oil + 2% DMSO, 30 min, preliminary value 171) was 181 mmHg and the DBP (conscious dogs (beagles); edible oil + 2% DMSO, 60 min, preliminary value 66) was 57 mmHg. It also gave an HR (conscious dogs (beagles); edible oil + 2% DMSO, 60 min, preliminary value 79) of 82 beats/min, an MAP (conscious dogs (beagles); edible oil + 2% DMSO, 60 min, preliminary value 111) of 109 mmHg and an SBP (conscious dogs (beagles); edible oil + 2% DMSO, 60 min, preliminary value 171) of 178 mmHg. The DBP (conscious dogs (beagles); edible oil + 2% DMSO, 90 min, preliminary value 66) was 58 mmHg, the HR (conscious dogs (beagles); edible oil + 2% DMSO, 90 min, preliminary value 79) was 86 beats/min and the MAP (conscious dogs (beagles); edible oil + 2% DMSO, 90 min, preliminary value 111) was 107 mmHg. It also gave an SBP (conscious dogs (beagles); edible oil + 2% DMSO, 90 min, preliminary value 171) of 173 mmHg, a DBP (conscious dogs (beagles); edible oil + 2% DMSO, 120 min, preliminary value 66) of 60 mmHg and an HR (conscious dogs (beagles); edible oil + 2% DMSO, 120 min, preliminary value 79) of 82 beats/min. For the same compound, the MAP (conscious dogs (beagles); edible oil + 2% DMSO, 120 min, preliminary value 111) was 109 mmHg, the SBP (conscious dogs (beagles); edible oil + 2% DMSO, 120 min, preliminary value 171) was 175 mmHg and the DBP (conscious dogs (beagles); edible oil + 2% DMSO, 150 min, preliminary value 66) was 63 mmHg. For the same compound, the HR (conscious dogs (beagles); edible oil + 2% DMSO, 150 min, preliminary value 79) was 82 beats/min, the MAP (conscious dogs (beagles); edible oil + 2% DMSO, 150 min, preliminary value 111) was 113 mmHg and the SBP (conscious dogs (beagles); edible oil + 2% DMSO, 150 min, preliminary value 171) was 179 mmHg. For the same compound, the DBP (conscious dogs (beagles); edible oil + 2% DMSO, 180 min, preliminary value 66) was 66 mmHg, the HR (conscious dogs (beagles); edible oil + 2% DMSO, 180 min, preliminary value 79) was 87 beats/min and the MAP (conscious dogs (beagles); edible oil + 2% DMSO, 180 min, preliminary value 111) was 114 mmHg. It also gave an SBP (conscious dogs (beagles); edible oil + 2% DMSO, 180 min, preliminary value 171) of 179 mmHg, a DBP (conscious dogs (beagles); edible oil + 2% DMSO, 210 min, preliminary value 66) of 68 mmHg and an HR (conscious dogs (beagles); edible oil + 2% DMSO, 210 min, preliminary value 79) of 86 beats/min. For the same compound, the MAP (conscious dogs (beagles); edible oil + 2% DMSO, 210 min, preliminary value 111) was 114 mmHg, the SBP (conscious dogs (beagles); edible oil + 2% DMSO, 210 min, preliminary value 171) was 174 mmHg and the DBP (conscious dogs (beagles); edible oil + 2% DMSO, 240 min, preliminary value 66) was 64 mmHg. The HR (conscious dogs (beagles); edible oil + 2% DMSO, 240 min, preliminary value 79) was 93 beats/min, the MAP (conscious dogs (beagles); edible oil + 2% DMSO, 240 min, preliminary value 111) was 109 mmHg and the SBP (conscious dogs (beagles); edible oil + 2% DMSO, 240 min, preliminary value 171) was 169 mmHg. For the same compound, the DBP (conscious dogs (beagles); edible oil + 2% DMSO, 300 min, preliminary value 66) was 65 mmHg, the HR (conscious dogs (beagles); edible oil + 2% DMSO, 300 min, preliminary value 79) was 92 beats/min and the MAP (conscious dogs (beagles); edible oil + 2% DMSO, 300 min, preliminary value 111) was 110 mmHg. It also gave an SBP (conscious dogs (beagles); edible oil + 2% DMSO, 300 min, preliminary value 171) of 169 mmHg, a DBP (conscious dogs (beagles); edible oil + 2% DMSO, 360 min, preliminary value 66) of 70 mmHg and an HR (conscious dogs (beagles); edible oil + 2% DMSO, 360 min, preliminary value 79) of 91 beats/min. It also gave an MAP (conscious dogs (beagles); edible oil + 2% DMSO, 360 min, preliminary value 111) of 115 mmHg, an SBP (conscious dogs (beagles); edible oil + 2% DMSO, 360 min, preliminary value 171) of 174 mmHg and an HR (conscious dogs (beagles); edible oil + 2% DMSO, 1 ml/kg, 30 min, preliminary value 79, average n=5) of 117 beats/min. The DBP (conscious dogs (beagles); methyl cellulose 1% + 2% DMSO, 30 min, preliminary value 70) was 65 mmHg, the MAP (conscious dogs (beagles); methyl cellulose 1% + 2% DMSO, 30 min, preliminary value 114) was 114 mmHg and the SBP (conscious dogs (beagles); methyl cellulose 1% + 2% DMSO, 30 min, preliminary value 172) was 179 mmHg. For the same compound, the DBP (conscious dogs (beagles); methyl cellulose 1% + 2% DMSO, 60 min, preliminary value 70) was 66 mmHg, the HR (conscious dogs (beagles); methyl cellulose 1% + 2% DMSO, 60 min, preliminary value 83) was 79 beats/min and the MAP (conscious dogs (beagles); methyl cellulose 1% + 2% DMSO, 60 min, preliminary value 114) was 114 mmHg. It also gave an SBP (conscious dogs (beagles); methyl cellulose 1% + 2% DMSO, 60 min, preliminary value 172) of 178 mmHg, a DBP (conscious dogs (beagles); methyl cellulose 1% + 2% DMSO, 90 min, preliminary value 70) of 63 mmHg and an HR (conscious dogs (beagles); methyl cellulose 1% + 2% DMSO, 90 min, preliminary value 83) of 83 beats/min. It also gave an MAP (conscious dogs (beagles); methyl cellulose 1% + 2% DMSO, 90 min, preliminary value 114) of 110 mmHg, an SBP (conscious dogs (beagles); methyl cellulose 1% + 2% DMSO, 90 min, preliminary value 172) of 172 mmHg and a DBP (conscious dogs (beagles); methyl cellulose 1% + 2% DMSO, 120 min, preliminary value 70) of 64 mmHg. The HR (conscious dogs (beagles); methyl cellulose 1% + 2% DMSO, 120 min, preliminary value 83) was 80 beats/min, the MAP (conscious dogs (beagles); methyl cellulose 1% + 2% DMSO, 120 min, preliminary value 114) was 111 mmHg and the SBP (conscious dogs (beagles); methyl cellulose 1% + 2% DMSO, 120 min, preliminary value 172) was 173 mmHg. It also gave a DBP (conscious dogs (beagles); methyl cellulose 1% + 2% DMSO, 150 min, preliminary value 70) of 64 mmHg, an HR (conscious dogs (beagles); methyl cellulose 1% + 2% DMSO, 150 min, preliminary value 83) of 81 beats/min and an MAP (conscious dogs (beagles); methyl cellulose 1% + 2% DMSO, 150 min, preliminary value 114) of 112 mmHg. For the same compound, the SBP (conscious dogs (beagles); methyl cellulose 1% + 2% DMSO, 150 min, preliminary value 172) was 175 mmHg, the DBP (conscious dogs (beagles); methyl cellulose 1% + 2% DMSO, 180 min, preliminary value 70) was 65 mmHg and the HR (conscious dogs (beagles); methyl cellulose 1% + 2% DMSO, 180 min, preliminary value 83) was 76 beats/min. For the same compound, the MAP (conscious dogs (beagles); methyl cellulose 1% + 2% DMSO, 180 min, preliminary value 114) was 114 mmHg, the SBP (conscious dogs (beagles); methyl cellulose 1% + 2% DMSO, 180 min, preliminary value 172) was 178 mmHg and the DBP (conscious dogs (beagles); methyl cellulose 1% + 2% DMSO, 210 min, preliminary value 70) was 63 mmHg. It also gave an HR (conscious dogs (beagles); methyl cellulose 1% + 2% DMSO, 210 min, preliminary value 83) of 84 beats/min, an MAP (conscious dogs (beagles); methyl cellulose 1% + 2% DMSO, 210 min, preliminary value 114) of 109 mmHg and an SBP (conscious dogs (beagles); methyl cellulose 1% + 2% DMSO, 210 min, preliminary value 172) of 169 mmHg. For the same compound, the DBP (conscious dogs (beagles); methyl cellulose 1% + 2% DMSO, 240 min, preliminary value 70) was 62 mmHg, the HR (conscious dogs (beagles); methyl cellulose 1% + 2% DMSO, 240 min, preliminary value 83) was 74 beats/min and the MAP (conscious dogs (beagles); methyl cellulose 1% + 2% DMSO, 240 min, preliminary value 114) was 108 mmHg. The SBP (conscious dogs (beagles); methyl cellulose 1% + 2% DMSO, 240 min, preliminary value 172) was 167 mmHg, the DBP (conscious dogs (beagles); methyl cellulose 1% + 2% DMSO, 300 min, preliminary value 70) was 62 mmHg and the HR (conscious dogs (beagles); methyl cellulose 1% + 2% DMSO, 300 min, preliminary value 83) was 77 beats/min. For the same compound, the MAP (conscious dogs (beagles); methyl cellulose 1% + 2% DMSO, 300 min, preliminary value 114) was 108 mmHg, the SBP (conscious dogs (beagles); methyl cellulose 1% + 2% DMSO, 300 min, preliminary value 172) was 169 mmHg and the DBP (conscious dogs (beagles); methyl cellulose 1% + 2% DMSO, 360 min, preliminary value 70) was 65 mmHg. The HR (conscious dogs (beagles); methyl cellulose 1% + 2% DMSO, 360 min, preliminary value 83) was 75 beats/min, the MAP (conscious dogs (beagles); methyl cellulose 1% + 2% DMSO, 360 min, preliminary value 114) was 110 mmHg and the SBP (conscious dogs (beagles); methyl cellulose 1% + 2% DMSO, 360 min, preliminary value 172) was 170 mmHg. For the same compound, the HR (conscious dogs (beagles); methyl cellulose 1% + 2% DMSO, 1 ml/kg, 30 min, preliminary value 83, average n=5) was 85 beats/min, the “behaviour of the dogs” value (dogs; conscious beagles, 24 mg/kg) was “normal” and the emetic action (dogs; conscious beagles, 24 mg/kg) was “not detectable”. For the same compound, the blood glucose (dogs; [5]) was “remained unchanged”, the triglycerides (dogs; [5]) was “remained unchanged” and the tolerability (dogs; dogs, p.o.) was “well tolerated”. For the same compound, the GPT (dogs; sign of liver damage, conscious beagles, 24 mg/kg, observation period up to 6 h) was “remained unchanged”, the IC50 (Basophilic granulocytes) was 10 µg/mL (≈ 43.8 µM) and the IC50 (Lymphocytes [2]) was 2.8 µg/mL (≈ 12.3 µM). The IC50 (Peripheral leucocytes) was < 3 µg/mL.
In the case of `Cn1c(=O)c2[nH]cnc2n(C)c1=O` [theophylline], the side effects ([3]; at slightly increased doses) is given as “nausea, giddiness, tachycardia and tremor” and the therapeutic breadth ([3]; employed for therapy) is given as “small therapeutic breadth”.
